Results taken from US6759399B1, “Use of antimineralocorticoid compounds against narcotic withdrawal syndrome” (Aventis Pharma S.A., priority 1995, dated 2004).
Where “and” joins values, the source holds several entries; their conditions need not be identical. Equal values may be shown once.

Assays:
[1] = tested on: morphinic withdrawal syndrome induced by naloxone in mice; experiment: Withdrawal syndrome induced by naloxone in mice treated with morphine (jumping test); conditions: for % protection: relative to the morphine group
[2] = tested on: self-administration of cocaine in rats; experiment: Dependence induced by cocaine: self-administration of cocaine in trained rats; format: in vivo; conditions: 1 hour before session
Description: The anti-mineralocorticoid product AM2 was tested on 5 rats which were trained in the self-administration of cocaine during daily periods of one hour.
These rats were pre-treated 1 hour before the start of the self-administration sessions.
The product AM2 dissolved in a saline solution was administered by intra-peritoneal route. The doses range from 10 to 100 mg/kg.

[3] = antimineralocorticoid alone 4 × 10 mg/kg p.o., no morphine, naloxone 100 mg/kg i.p.
[4] = antimineralocorticoid alone 4 × 20 mg/kg p.o., no morphine, naloxone 100 mg/kg i.p.
[5] = morphine 799 mg/kg s.c. + antimineralocorticoid 4 × 10 mg/kg p.o., naloxone 100 mg/kg i.p.
[6] = morphine 799 mg/kg s.c. + antimineralocorticoid 4 × 10 mg/kg p.o.
[7] = morphine 799 mg/kg s.c. + antimineralocorticoid 4 × 20 mg/kg p.o., naloxone 100 mg/kg i.p.
[8] = morphine 799 mg/kg s.c. + antimineralocorticoid 4 × 20 mg/kg p.o.

| Structure (SMILES) | Number of jumps/10 minutes (m ± sem) [1, 3] [jumps/10 minutes] | Number of jumps/10 minutes (m ± sem) [1, 4] [jumps/10 minutes] | Number of jumps/10 minutes (m ± sem) [1, 5] [jumps/10 minutes] | % protection [1, 6] [%] | Number of jumps/10 minutes (m ± sem) [1, 7] [jumps/10 minutes] | % protection [1, 8] [%] | Number of jumps/10 minutes (m ± sem) ([1]; antimineralocorticoid alone 4 × 50 mg/kg p.o., no morphine, naloxone 100 mg/kg i.p.) [jumps/10 minutes] | Number of jumps/10 minutes (m ± sem) ([1]; morphine 799 mg/kg s.c. + antimineralocorticoid 4 × 50 mg/kg p.o., naloxone 100 mg/kg i.p.) [jumps/10 minutes] | % protection ([1]; morphine 799 mg/kg s.c. + antimineralocorticoid 4 × 50 mg/kg p.o.) [%] | effect on the self-administration of cocaine ([2]; pre-treatment with 10 or 20 mg/kg intra-peritoneal) | effect on the self-administration of cocaine ([2]; pre-treatment with 50 or 75 mg/kg intra-peritoneal) | Number of jumps/10 minutes (m ± sem) ([1]; morphine alone 799 mg/kg s.c. (cumulative over 4 days), naloxone 100 mg/kg i.p. on day 4) |
| --- | --- | --- | --- | --- | --- | --- | --- | --- | --- | --- | --- | --- |
| CC(=O)S[C@@H]1CC2=CC(=O)CC[C@]2(C)[C@H]2CC[C@@]3(C)[C@@H](CC[C@@]34CCC(=O)O4)[C@H]12 [AM1, γ-lactone of 7α-acetylthio-17β-hydroxy-3-oxo-17α-pregn-4-ene-21-carboxylic acid] | 3 ± 2 | 11 ± 4 | 51 ± 7 | −33 | 77 ± 8 | −32 | – | – | – | – | – | – |
| CCC[C@@H]1CC2=CC(=O)CC[C@]2(C)[C@H]2CC[C@@]3(C)[C@@H](CC[C@@]3(O)CCC(=O)[O-])[C@H]12.[K+] [AM2, potassium 17β-hydroxy 3-oxo 7α-propyl-(17α)-pregn-4-ene-21-carboxylate] | 2 ± 2 | 4 ± 4 | 76 ± 16 | −25 | 51 ± 8 | −48 | 3 ± 2 | 61 ± 8 | −40 | little or no effect | significant reduction | – |
| CN1CC[C@]23c4c5ccc(O)c4O[C@H]2[C@@H](O)C=C[C@H]3[C@H]1C5 [Morphine, morphine] | – | – | – | – | – | – | – | – | – | – | – | 114 ± 8 jumps/10 minutes and 76 ± 15 jumps/10 minutes and 102 ± 10 jumps/10 minutes and 99 ± 13 jumps/10 minutes |
